Where two headings read alike, the source gives them in different places. Marks after values point to notes of the source that are not given here.
Key:
[1] = Pharmacokinetics in cynomolgus monkey; type: in vivo; details: Cyno
[2] = target: Bruton's Tyrosine Kinase (Homo sapiens, UniProt Q06187); assay: Bruton's Tyrosine Kinase (BTK) inhibition TR-FRET competition assay; type: binding
Procedure: This BTK competition assay measures compound potency (IC50) for the inactivated state of Bruton's Tyrosine Kinase using FRET (Firster/Fluorescence Resonance Energy Transfer) technology. The BTK-Eu complex was incubated on ice one hour prior to use at a starting concentration of 50 nM BTK-Bioease™: 10 nM Eu-streptavidin (Perkin-Elmer Catalog#AD0062). The assay buffer consisted of 20 mM HEPES (pH 7.15), 0.1 mM DTT, 10 mM MgCl2, 0.5 mg/ml BSA with 3% Kinase Stabilizer (Fremont Biosolutions, Catalog #STB-K02). After 1 h, the reaction mixture from above was diluted 10 fold in assay buffer to make 5 nM BTK: InM Eu-Streptavidin complex (donor fluorophore). 18 l of a mixture of 0.11 nM BTK-Eu and 0.11 nM Kinase Tracer 178 (Invitrogen, Catalog #PV5593,) with BTK-Eu alone as no negative control, was then dispensed into 384-well flat bottom plates (Greiner, 784076). Compounds to be tested in assay were prepared as 10× concentrations and serial dilution in half-log increments was performed in DMSO so as to generate 10 point curves. To initiate the FRET reaction, compounds prepared as 10× stock in DMSO was added to the plates and the plates were incubated 18-24 h at 14° C.
After the incubation the plates were read on a BMG Pherastar Fluorescent plate reader (or equivalent) and used to measure the emission energy from the europium donor fluorophore (620 nm emission) and the FRET (665 nm emission). The negative control well values were averaged to obtain the mean minimum. The positive “no inhibitor” control wells were averaged to obtain the mean maximum. Percent of maximal FRET was calculated using following equation:
% max FRET=100×[(FSRcmpd−FSRmean min)/(FSRmean max−FSRmean min)]
where FSR=FRET Signal ratio. % Max FRET curves were plotted in Activity Base (Excel) and the IC50(%), hill slope, z′ and % CV were determined. The mean IC50 and standard deviation will be derived from duplicate curves (singlet inhibition curves from two independent dilutions) using Microsoft Excel.

[3] = test system: mice, poly I:C-induced airway neutrophilia; assay: Poly I:C induced steroid-resistant airway inflammation (neutrophilia); type: in vivo, mouse; details: for % reduction in airway neutrophilia: Inhaled
Procedure: Compound 1's effects on airway inflammation induced by a synthetic form of double-stranded RNA, polyinosine-polycytidylic acid (Poly I:C) were assessed. […] To perform this experiment, mice (male; BALB/c; 7-9 weeks of age) were anesthetized with isoflurane and intranasally (i.n.) administered saline or poly I:C ([…]) and airway inflammation was evaluated 24 hours later as previously described [Harris et al., 2012, Mucosal Immunology]. Compound 1 inhibited poly I:C-induced airway neutrophilia in a dose-dependent (Table 6). These reductions in neutrophils were consistent with reductions in the levels of neutrophil chemoattractants in the lavage fluid (Table 4).

[4] = Micronization: particle size and polymorphic form; type: physicochemical
Procedure: 10.6 g of compound 1 was micronized in a Jet-O-Mizer jet mill at feed and grinding pressures of 90 psi. The micronized material thus obtained was analyzed by powder X-ray diffraction pattern and particle size distribution as shown in FIGS. 1 and 2 respectively. No change in polymorphic form was observed during the micronization process. Eighty percent of the particles were of size 5 μm or less with a mean particle size (d50%=2.88 μm) in the range suitable for inhalation delivery. The material was used for the in vivo experiment mOVA36.
8.6 g of 2-(6-tert-butyl-8-fluoro-1-oxophthalazin-2(1H)-yl)-4-(1-methyl-5-(5-(1-methylpiperidin-4-yl)pyridin-2-ylamino)-6-oxo-1,6-dihydropyridazin-3-yl)nicotinaldehyde was micronized in a Jet-O-Mizer jet mill at 80 psi. The mean particle size (d50%) was 3.05 μm with 90% particles ≦6 μm (FIG. 3). This material (30% w/w) and lactose (Lactohale LH 300, 70% w/w) were mixed in a Turbula mixer at 22 rpm for 15 minutes. The d50% and d90% particle size of the lactose ingredient were <5 μm and <10 μm, respectively (DFE Pharma specifications (#001/October 2011). The blend thus obtained was used for the in vivo experiment mOVA40, mPolylC-3-12 and mPolylC-5-12. See FIG. 3.

[5] = test system: OVA sensitized and challenged mice, allergen-induced bronchoconstriction; assay: Ovalbumin-induced allergic airway disease: allergen-induced bronchoconstriction
[6] = test system: human B cells (BCR activation); assay: Human B cell antibody production after BCR activation; type: cell-based; details: for IC50: Homo sapiens, B-cell, N = 3 donors
Procedure: Human total B cells were enriched with RosetteSep human B cell enrichment cocktail (#28921, Vancouver, BC) from buffy coat leukocyte packs (New York Blood Center) following manufacturer's protocol. Enriched B cell purity (around 80%) was checked by FACS with CD19+ staining. B cells were suspended (0.1 million cells/well/100 μl) in RPMI-1640 based conditional medium (50 ng/ml IL-2, 50 ng/ml IL-10, and […] anti-IgD for the activation of B cells to produce IgG/IgM; 10 ng/ml IL-4, 10 ng/ml IL-10, 25 ng/ml IL-21, and […] anti-CD40 for the activation of B cells to produce IgE) together with Compound 1 (1 nM-10 μM). Cells were cultured for 10 days (for IgG/IgM production) or 14 days (for IgE production) at 37° C. Culture supernatants were collected for IgM, IgG, and IgE analysis following Bethyl Laboratory's protocol (#E80-104, #E80-100, #E80-108, Montgomery, Tex.).

Chain of Bruton's Tyrosine Kinase (Q06187 whole entry): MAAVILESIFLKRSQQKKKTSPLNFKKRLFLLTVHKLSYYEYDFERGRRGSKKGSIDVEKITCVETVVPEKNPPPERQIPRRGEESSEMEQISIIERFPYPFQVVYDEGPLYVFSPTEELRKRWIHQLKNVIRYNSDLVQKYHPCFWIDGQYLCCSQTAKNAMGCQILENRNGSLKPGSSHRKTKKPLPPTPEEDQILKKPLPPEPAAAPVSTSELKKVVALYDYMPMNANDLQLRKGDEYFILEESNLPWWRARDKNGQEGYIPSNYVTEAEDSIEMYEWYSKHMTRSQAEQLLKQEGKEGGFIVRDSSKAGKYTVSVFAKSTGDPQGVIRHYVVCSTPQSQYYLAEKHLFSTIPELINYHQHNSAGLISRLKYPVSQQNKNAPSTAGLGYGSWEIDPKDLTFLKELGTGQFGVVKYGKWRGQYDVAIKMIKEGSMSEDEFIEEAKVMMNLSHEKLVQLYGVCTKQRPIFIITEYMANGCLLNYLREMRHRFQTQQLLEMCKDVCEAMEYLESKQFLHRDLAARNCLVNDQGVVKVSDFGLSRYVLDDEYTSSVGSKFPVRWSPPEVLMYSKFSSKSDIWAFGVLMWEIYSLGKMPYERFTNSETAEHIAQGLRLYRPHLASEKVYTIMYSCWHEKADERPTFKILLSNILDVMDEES

SMILES: CN1CCC(c2ccc(Nc3cc(-c4ccnc(-n5ncc6cc(C(C)(C)C)cc(F)c6c5=O)c4CO)nn(C)c3=O)nc2)CC1 [Compound 1, 6-tert-Butyl-8-fluoro-2-{3-hydroxymethyl-4-[1-methyl-5-(1′-methyl-1′,2′,3′,4′,5′,6′-hexahydro-[3,4′]bipyridinyl-6-ylamino)-6-oxo-1,6-dihydro-pyridazin-3-yl]-pyridin-2-yl}-2H-phthalazin-1-one]
- CL ([1]; 0.3 mg/kg (iv)): high
- Oral Bioavailability ([1]; 0.3 (iv), 0.9 (po) mg/kg): low
- bioavailability ([1]; cynomolgus monkey, plasma, 0.9 mg/kg, 0.3 (iv), 0.9 (po) mg/kg): 8%
- clearance ([1]; cynomolgus monkey, plasma, 0.3 mg/kg (iv)): 38.9 mL/min/kg
- Btk inhibitor potency (FRET) [2]: very potent
- IC50 ([2]; inactivated state of BTK, 18-24 h at 14° C.): 0.4 nM
- % reduction in airway neutrophilia ([3]; delivered dose 0.09 mg/kg, deposited dose .003 mg/kg, mPolyIC-3-12): 17%
- % reduction in airway neutrophilia ([3]; delivered dose 0.27 mg/kg, deposited dose .010 mg/kg, mPolyIC-3-12): 22%
- % reduction in airway neutrophilia ([3]; delivered dose 0.81 mg/kg, deposited dose .030 mg/kg, mPolyIC-3-12): 67* %
- % reduction in airway neutrophilia ([3]; delivered dose 8.6 mg/kg, deposited dose 0.3 mg/kg, mPolyIC-5-12): 83* %
- poly I:C-induced airway neutrophilia ([3]; dose-dependent): inhibited
- levels of neutrophil chemoattractants in the lavage fluid ([3]; mouse, in vivo): reductions
- particle size of 90% particles ([4]; micronized at 80 psi, material for mOVA40 and mPolyIC): ≤ 6 μm
- particles of size 5 μm or less ([4]; micronized at 90 psi, material for mOVA36): Eighty
- mean particle size (d50%) ([4]; micronized in Jet-O-Mizer jet mill at 80 psi, material for mOVA40 and mPolyIC): 3.05 μm
- mean particle size (d50%) ([4]; micronized in Jet-O-Mizer jet mill at 90 psi, material for mOVA36): 2.88 μm
- change in polymorphic form during the micronization process ([4]; powder X-ray diffraction before and after micronization): No change
- % reduction in airway resistance (R) ([5]; Inhaled, delivered dose 1.0 mg/kg, deposited dose 0.03 mg/kg, mOVA36): 44%
- % reduction in airway resistance (R) ([5]; Inhaled, delivered dose 2.7 mg/kg, deposited dose 0.1 mg/kg, mOVA36): 59* %
- % reduction in airway resistance (R) ([5]; Inhaled, delivered dose 8.6 mg/kg, deposited dose 0.3 mg/kg, mOVA36): 86* %
- % reduction in airway resistance (R) ([5]; Intranasal, delivered dose 0.3 mg/kg, deposited dose 0.3 mg/kg): 85* %
- OVA-induced increase in R ([5]; administered i.n. or delivered as a dry powder formulation by inhalation): effectively inhibited
- IC50 ([6]; 240 h, 10 days culture, read-out: IC50 IgG production): 4.15 nM
- IC50 ([6]; 240 h, 10 days culture, read-out: IC50 IgM production): 1.21 nM
- IC50 ([6]; 336 h, 14 days culture, read-out: IC50 IgE production): 1.47 nM
- reduction of levels of IgM, IgG, and IgE in the supernatant, efficacy ([6]; concentration dependent): up to 100%
